Test results published in US20240299376A1, “METHOD OF TREATING A CONDITION USING A […] EFFECTIVE DOSE OF 1-(1-OXO-1,2-DIHYDROISOQUINOLIN-5-YL)-5-(TRIFLUOROMETHYL)-N-(2-(TRIFLUOROMETHYL)PYRIDIN-4-YL)-1H-PYRAZOLE-4-CARBOXAMIDE” (Janssen Pharmaceutica NV, priority 2021, published 2024).
Read-outs that look alike come from different tables or passages of the source.

What was measured:
[1] = FIH study 67856633LYM1001 plasma pharmacokinetics; assay type: in vivo, human; conditions: human, plasma
Description: The study consists of a dose escalation phase (Part 1), to determine the recommended Phase 2 dose(s) (RP2D[s]), followed by an expansion phase at the RP2D(s) (Part 2). The dose escalation phase is supported using an adaptive dose escalation strategy guided by the modified continual reassessment method (mCRM) based on a Bayesian Logistic Regression Model (BLRM) with escalation with overdose control (EWOC) principle. The mCRM design allows the use of all cumulative dose-limiting toxicities (DLT) data up to the current dose cohort.
In Part 1, subjects were enrolled in cohorts of daily oral doses at 50 mg, 100 mg, 200 mg (1×200 mg or 4×50 mg), 300 mg (3×100 mg or 6×50 mg), 400 mg (2×200 mg or 8×50 mg), and 600 mg (3×200 mg), and loading dosing cohorts—400 mg loading dose once daily for 14 days, followed by 300 mg once daily, and 300 mg loading dose twice daily for 7 days followed by 300 mg once daily. In Part 2, subjects received daily oral doses of 300 mg.
In Part 1, PK data were available in subjects receiving doses of 50 mg (1×50 mg), 100 mg (2×50 mg), 200 mg (4×50 mg or 1×200 mg), 300 mg (6×50 mg or 3×100 mg), 400 mg (8×50 mg or 2×200 mg), and 600 mg (3×200 mg). Pharmacokinetic data were also available from the loading dose regimens of 400 mg (8×50 mg) loading dose once daily for 14 days followed by 300 mg (6×50 mg) once daily, and 300 mg (6×50 mg) loading dose twice daily for 7 days followed by 300 mg (6×50 mg) once daily.

B-cell lymphoma lines = experiment: Anti-proliferative activity, panel of 10 B-cell lymphoma lines (general cytotoxicity); assay type: cell-based
Protocol: Four ABC-DLBCL cell lines with activating mutations in the canonical NFκB pathway were evaluated (OCI-LY3 (CARD11, MYD88 & A20 mutations), TMD8, HBL1, and OCI-LY10 (CD79B & MYD88 mutations)), which are generally sensitive to NF-κB pathway inhibition. None of the GCB-DLBCL cell lines harbor mutations in the NF-κB pathway. The GCB-DLBCL cell lines served as a negative control to exclude compounds with general cytotoxic effects.
At concentrations ≥20 μM general cytotoxicity was observed.

Q: Which results are given for `O=C(Nc1ccnc(C(F)(F)F)c1)c1cnn(-c2cccc3c(=O)[nH]ccc23)c1C(F)(F)F` [Compound A, 1-(1-oxo-1,2-dihydroisoquinolin-5-yl)-5-(trifluoromethyl)-N-[2-(trifluoromethyl)pyridin-4-yl]-1H-pyrazole-4-carboxamide]?
A: Tmax ([1]; oral, 100 mg, Cycle 2 Day 1, 50 mg capsule, cohort 2 × 50 mg, median, read-out: Tmax): 2 h; AUC ([1]; oral, 200 mg, Cycle 1 Day 1, 50 mg capsule, cohort 4 × 50 mg, Subject 100032 excluded, mean, read-out: AUCτ): 118 µg·h/mL; Cmax ([1]; oral, 200 mg, Cycle 1 Day 1, 50 mg capsule, cohort 4 × 50 mg, Subject 100032 excluded, mean, read-out: Cmax): 6.75 µg/mL; Tmax ([1]; oral, 200 mg, Cycle 1 Day 1, 50 mg capsule, cohort 4 × 50 mg, Subject 100032 excluded, median, read-out: Tmax): 4 h; AUC ([1]; oral, 200 mg, Cycle 1 Day 1, 200 mg capsule, cohort 200 mg, mean, read-out: AUCτ): 61.9 µg·h/mL; Cmax ([1]; oral, 200 mg, Cycle 1 Day 1, 200 mg capsule, cohort 200 mg, mean, read-out: Cmax): 4.06 µg/mL; Tmax ([1]; oral, 200 mg, Cycle 1 Day 1, 200 mg capsule, cohort 200 mg, median, read-out: Tmax): 4 h; AUC ([1]; oral, 200 mg, Cycle 1 Day 1, cohort 4 × 50 mg, with Subject 100032 data included, read-out: mean AUC): 139 µg·h/mL; Cmax ([1]; oral, 200 mg, Cycle 1 Day 1, cohort 4 × 50 mg, with Subject 100032 data included, read-out: mean Cmax): 8.06 µg/mL; AUC ([1]; oral, 200 mg, Cycle 2 Day 1, 50 mg capsule, cohort 4 × 50 mg, Subject 100032 excluded, mean, read-out: AUCτ): 882 µg·h/mL; Cmax ([1]; oral, 200 mg, Cycle 2 Day 1, 50 mg capsule, cohort 4 × 50 mg, Subject 100032 excluded, mean, read-out: Cmax): 44.8 µg/mL; Tmax ([1]; oral, 200 mg, Cycle 2 Day 1, 50 mg capsule, cohort 4 × 50 mg, Subject 100032 excluded, median, read-out: Tmax): 2 h; Cmax ([1]; oral, 200 mg, Cycle 2 Day 1, 200 mg capsule, cohort 200 mg, individual values, N = 2, read-out: Cmax): 25.7 µg/mL; AUC ([1]; oral, 200 mg, Cycle 2 Day 1, 200 mg capsule, cohort 200 mg, read-out: AUCτ): 453 µg·h/mL; AUC ([1]; oral, 200 mg, Cycle 2 Day 1, cohort 4 × 50 mg, with Subject 100032 data included, read-out: mean AUC): 1140 µg·h/mL; Cmax ([1]; oral, 200 mg, Cycle 2 Day 1, cohort 4 × 50 mg, with Subject 100032 data included, read-out: mean Cmax): 58.2 µg/mL; AUC ([1]; oral, 300 mg, Cycle 1 Day 1, 50 mg capsule, cohort 6 × 50 mg (300 mg QD), mean, n = 9, read-out: AUCτ): ~152 µg·h/mL; Cmax ([1]; oral, 300 mg, Cycle 1 Day 1, 50 mg capsule, cohort 6 × 50 mg (300 mg QD), mean, read-out: Cmax): ~8.81 µg/mL; Tmax ([1]; oral, 300 mg, Cycle 1 Day 1, 50 mg capsule, cohort 6 × 50 mg (300 mg QD), median, read-out: Tmax): ~4 h; Cmax ([1]; oral, 300 mg, Cycle 1 Day 1, cohort 6 × 50 mg BID > QD (300 mg BID 7 days then 300 mg QD), mean, read-out: Cmax): 4.31 µg/mL; Tmax ([1]; oral, 300 mg, Cycle 1 Day 1, cohort 6 × 50 mg BID > QD (300 mg BID 7 days then 300 mg QD), median, read-out: Tmax): ~6 h; AUC ([1]; oral, 300 mg, Cycle 2 Day 1, 50 mg capsule, cohort 6 × 50 mg (300 mg QD), mean, read-out: AUCτ): ~1140 µg·h/mL; Cmax ([1]; oral, 300 mg, Cycle 2 Day 1, 50 mg capsule, cohort 6 × 50 mg (300 mg QD), mean, read-out: Cmax): ~55.2 µg/mL; Tmax ([1]; oral, 300 mg, Cycle 2 Day 1, 50 mg capsule, cohort 6 × 50 mg (300 mg QD), median, read-out: Tmax): ~4 h; Tmax ([1]; oral, 300 mg, Cycle 2 Day 1, cohort 6 × 50 mg BID > QD, individual values, N = 2, read-out: Tmax): ~3 h; AUC ([1]; oral, 400 mg, Cycle 1 Day 1, 50 mg capsule, cohort 8 × 50 mg, mean, read-out: AUCτ): 131 µg·h/mL; Cmax ([1]; oral, 400 mg, Cycle 1 Day 1, 50 mg capsule, cohort 8 × 50 mg, mean, read-out: Cmax): 7.56 µg/mL; Tmax ([1]; oral, 400 mg, Cycle 1 Day 1, 50 mg capsule, cohort 8 × 50 mg, median, read-out: Tmax): 3 h; AUC ([1]; oral, 400 mg, Cycle 1 Day 1, 200 mg capsule, cohort 2 × 200 mg food adlib, mean, read-out: AUCτ): 112 µg·h/mL; Cmax ([1]; oral, 400 mg, Cycle 1 Day 1, 200 mg capsule, cohort 2 × 200 mg food adlib, mean, read-out: Cmax): 6.83 µg/mL; Tmax ([1]; oral, 400 mg, Cycle 1 Day 1, 200 mg capsule, cohort 2 × 200 mg food adlib, median, read-out: Tmax): 4.5 h; AUC ([1]; oral, 400 mg, Cycle 1 Day 1, 200 mg capsule, cohort 2 × 200 mg, mean, read-out: AUCτ): 68 µg·h/mL; Cmax ([1]; oral, 400 mg, Cycle 1 Day 1, 200 mg capsule, cohort 2 × 200 mg, mean, read-out: Cmax): 4.19 µg/mL; Tmax ([1]; oral, 400 mg, Cycle 1 Day 1, 200 mg capsule, cohort 2 × 200 mg, median, read-out: Tmax): 5 h; AUC ([1]; oral, 400 mg, Cycle 1 Day 1, cohort 8 × 50 mg > 6 × 50 mg (400 mg QD loading 14 days then 300 mg QD), Subject 100070 excluded, mean, read-out: AUCτ): 186 µg·h/mL; Cmax ([1]; oral, 400 mg, Cycle 1 Day 1, cohort 8 × 50 mg > 6 × 50 mg (400 mg QD loading 14 days then 300 mg QD), Subject 100070 excluded, mean, read-out: Cmax): 10.3 µg/mL; Tmax ([1]; oral, 400 mg, Cycle 1 Day 1, cohort 8 × 50 mg > 6 × 50 mg (400 mg QD loading 14 days then 300 mg QD), median, read-out: Tmax): 3 h; AUC ([1]; oral, 400 mg, Cycle 1 Day 1, cohort 8 × 50 mg > 6 × 50 mg, with Subject 100070 data included, read-out: mean AUC): 237 µg·h/mL; Cmax ([1]; oral, 400 mg, Cycle 1 Day 1, cohort 8 × 50 mg > 6 × 50 mg, with Subject 100070 data included, read-out: mean Cmax): 12.8 µg/mL; AUC ([1]; oral, 400 mg, Cycle 2 Day 1, 50 mg capsule, cohort 8 × 50 mg, mean, read-out: AUCτ): 1590 µg·h/mL; Cmax ([1]; oral, 400 mg, Cycle 2 Day 1, 50 mg capsule, cohort 8 × 50 mg, mean, read-out: Cmax): 94.1 µg/mL; Tmax ([1]; oral, 400 mg, Cycle 2 Day 1, 50 mg capsule, cohort 8 × 50 mg, median, read-out: Tmax): 3.5 h; AUC ([1]; oral, 400 mg, Cycle 2 Day 1, 200 mg capsule, cohort 2 × 200 mg food adlib, mean, read-out: AUCτ): 1330 µg·h/mL; Cmax ([1]; oral, 400 mg, Cycle 2 Day 1, 200 mg capsule, cohort 2 × 200 mg food adlib, mean, read-out: Cmax): 72.3 µg/mL; Tmax ([1]; oral, 400 mg, Cycle 2 Day 1, 200 mg capsule, cohort 2 × 200 mg food adlib, median, read-out: Tmax): 8 h; AUC ([1]; oral, 400 mg, Cycle 2 Day 1, 200 mg capsule, cohort 2 × 200 mg, mean, read-out: AUCτ): 824 µg·h/mL; Cmax ([1]; oral, 400 mg, Cycle 2 Day 1, 200 mg capsule, cohort 2 × 200 mg, mean, read-out: Cmax): 43.2 µg/mL; Tmax ([1]; oral, 400 mg, Cycle 2 Day 1, 200 mg capsule, cohort 2 × 200 mg, median, read-out: Tmax): 3 h; AUC ([1]; oral, 600 mg, Cycle 1 Day 1, 200 mg capsule, cohort 3 × 200 mg, individual values, N = 2, read-out: AUCτ): 123 µg·h/mL; Cmax ([1]; oral, 600 mg, Cycle 1 Day 1, 200 mg capsule, cohort 3 × 200 mg, individual values, N = 2, read-out: Cmax): 7.79 µg/mL; Tmax ([1]; oral, 600 mg, Cycle 1 Day 1, 200 mg capsule, cohort 3 × 200 mg, individual values, N = 2, read-out: Tmax): 3 h; Cmax ([1]; oral, Cycle 2 Day 1, cohort 8 × 50 mg > 6 × 50 mg (400 mg QD loading 14 days then 300 mg QD), Subject 100070 excluded, mean, read-out: Cmax): 72.2 µg/mL; AUC ([1]; oral, Cycle 2 Day 1, cohort 8 × 50 mg > 6 × 50 mg, Subject 100070 excluded, mean, read-out: AUCτ): 1700 µg·h/mL; Tmax ([1]; oral, Cycle 2 Day 1, cohort 8 × 50 mg > 6 × 50 mg, Subject 100070 excluded, median, read-out: Tmax): 3 h; AUC ([1]; oral, Cycle 2 Day 1, cohort 8 × 50 mg > 6 × 50 mg, with Subject 100070 data included, read-out: mean AUC): 1810 µg·h/mL; Cmax ([1]; oral, Cycle 2 Day 1, cohort 8 × 50 mg > 6 × 50 mg, with Subject 100070 data included, read-out: mean Cmax): 79.7 µg/mL; Tmax ([1]; po, 50 mg, Cycle 2 Day 1, 50 mg capsule, oral daily administration, read-out: median Tmax): 2 to 4 h; Tmax ([1]; po, 200 mg, Cycle 2 Day 1, 200 mg capsule, oral daily administration, read-out: median Tmax): 3 to 8 h; Tmax ([1]; po, first oral dose at Cycle 1 Day 1, doses of 50 to 600 mg, read-out: median Tmax): 3 to 6 h; concentrations at which general cytotoxicity was observed (B-cell lymphoma lines): ≥ 20 µM
